Data published in patent US12594276B2, “Inhibitors of human immunodeficiency virus replication” (ViiV Healthcare UK (No.5) Limited, priority 2024, dated 2026).

How the values were obtained:
[1] = tested on: recombinant NL4-3 virus (nef section replaced with Renilla luciferase gene) in MT-2 cells; assay: HIV cell culture assay (antiviral activity, luciferase readout); type: cell-based; details: Renilla, NL43, MT-2 cells infected for 4-5 days with recombinant NL4-3 Renilla luciferase virus
Summary of the method: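 EC50 was derived by median-effect fitting of Renilla luciferase signal from MT-2 cells. These cells were infected for 4–5 days with NL4-3 reporter virus (nef partly replaced by luciferase; made in 293T cells) in the presence of serially diluted compound. Activity was quantified with a live-cell luciferase substrate.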

[2] = Compound cytotoxicity, XTT-based colorimetric assay; type: cell-based; details: human; uninfected MT2 cells, day 4, XTT; read-out: CC50
Summary of the method: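 Uninfected MT2 cells, antiviral-assay protocol without virus; XTT colorimetric readout day 4; CC50 reported.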

Compound	EC50 [1]	CC50 at 4 days [2]
CCOCCn1nc(NS(C)(=O)=O)c2c(Cl)ccc(-n3c([C@H](Cc4cc(F)cc(F)c4)NC(=O)Cn4nc(C(F)F)c5c4C(F)(F)[C@@H]4C[C@H]54)nc4nc(C5CCC(F)(F)CC5)cc(C)c4c3=O)c21 (atropisomer, axis not shown; (P)) [Example 60, N-[(1S)-1-[(3P)-3-[4-chloro-1-(2-ethoxyethyl)-3-methanesulfonamido-1H-indazol-7-yl]-7-(4,4-difluorocyclohexyl)-5-methyl-4-oxo-3H,4H-pyrido[2,3-d]pyrimidin-2-yl]-2-(3,5-difluorophenyl)ethyl]-2-[(2S,4R)-9-(difluoromethyl)-5,5-difluoro-7,8-diazatricyclo[4.3.0.0^2,^4]nona-1(6),8-dien-7-yl]acetamide]	0.012 nM	> 50 nM
Cc1cc(C2(F)CCC(F)(F)CC2)nc2nc([C@H](Cc3cc(F)cc(F)c3)NC(=O)Cn3nc(C4CC4)c4c3C[C@@H]3C[C@H]43)n(-c3ccc(Cl)c4c(NS(C)(=O)=O)nn(CCN5C[C@@H](C)O[C@@H](C)C5)c34)c(=O)c12 (atropisomer, axis not shown; (P)) [Example 503, N-[(1S)-1-[(3P)-3-(4-chloro-1-{2-[(2R,6S)-2,6-dimethylmorpholin-4-yl]ethyl}-3-methanesulfonamido-1H-indazol-7-yl)-5-methyl-4-oxo-7-(1,4,4-trifluorocyclohexyl)-3H,4H-pyrido[2,3-d]pyrimidin-2-yl]-2-(3,5-difluorophenyl)ethyl]-2-[(2S,4S)-9-cyclopropyl-7,8-diazatricyclo[4.3.0.0^2,4]nona-1(6),8-dien-7-yl]acetamide]	0.008 nM	> 20 nM
CC(C)[C@H]1CN(CCn2nc(NS(C)(=O)=O)c3c(Cl)ccc(-n4c([C@H](Cc5cc(F)cc(F)c5)NC(=O)Cn5nc(C6CC6)c6c5C[C@@H]5C[C@H]65)nc5nc(C6CCC(F)(F)CC6)cc(C(F)F)c5c4=O)c32)CCO1 (atropisomer, axis not shown; (P)) [Example 467, N-[(1S)-1-[(3P)-3-(4-chloro-3-methanesulfonamido-1-{2-[(2S)-2-(propan-2-yl)morpholin-4-yl]ethyl}-1H-indazol-7-yl)-7-(4,4-difluorocyclohexyl)-5-(difluoromethyl)-4-oxo-3H,4H-pyrido[2,3-d]pyrimidin-2-yl]-2-(3,5-difluorophenyl)ethyl]-2-[(2S,4S)-9-cyclopropyl-7,8-diazatricyclo[4.3.0.0^2,^4]nona-1(6),8-dien-7-yl]acetamide]	0.017 nM	> 20 nM
CS(=O)(=O)Nc1nn(CCN2CC(F)(F)C2)c2c(-n3c([C@H](Cc4cc(F)cc(F)c4)NC(=O)Cn4nc(C(F)F)c5c4C(F)(F)[C@@H]4C[C@H]54)nc4nc(C5CCC(F)(F)CC5)cc(C(F)F)c4c3=O)ccc(Cl)c12 (atropisomer, axis not shown; (P)) [Example 307, N-[(1S)-1-[(3P)-3-{4-chloro-1-[2-(3,3-difluoroazetidin-1-yl)ethyl]-3-methanesulfonamido-1H-indazol-7-yl}-7-(4,4-difluorocyclohexyl)-5-(difluoromethyl)-4-oxo-3H,4H-pyrido[2,3-d]pyrimidin-2-yl]-2-(3,5-difluorophenyl)ethyl]-2-[(2S,4R)-9-(difluoromethyl)-5,5-difluoro-7,8-diazatricyclo[4.3.0.0^2,^4]nona-1(6),8-dien-7-yl]acetamide]	0.023 nM	> 50 nM
CC1(F)CCN(CCn2nc(NS(C)(=O)=O)c3c(Cl)ccc(-n4c([C@H](Cc5cc(F)cc(F)c5)NC(=O)Cn5nc(C(F)F)c6c5C(F)(F)[C@@H]5C[C@H]65)nc5nc(C6CCC(F)(F)CC6)cc(C(F)F)c5c4=O)c32)CC1 (atropisomer, axis not shown; (P)) [Example 290, N-[(1S)-1-[(3P)-3-{4-chloro-1-[2-(4-fluoro-4-methylpiperidin-1-yl)ethyl]-3-methanesulfonamido-1H-indazol-7-yl}-7-(4,4-difluorocyclohexyl)-5-(difluoromethyl)-4-oxo-3H,4H-pyrido[2,3-d]pyrimidin-2-yl]-2-(3,5-difluorophenyl)ethyl]-2-[(2S,4R)-9-(difluoromethyl)-5,5-difluoro-7,8-diazatricyclo[4.3.0.0^2,^4]nona-1(6),8-dien-7-yl]acetamide]	0.023 nM	> 50 nM
Cc1cc(C2CCC(F)(F)CC2)nc2nc([C@H](Cc3cc(F)cc(F)c3)NC(=O)Cn3nc(C4CC4)c4c3C[C@@H]3C[C@H]43)n(-c3ccc(Cl)c4c(NS(C)(=O)=O)nn([C@H](C)CN5CC(C)(C)OC(C)(C)C5)c34)c(=O)c12 (relative stereo) [Example 734, N-[(1S)-1-[(3P)-3-{4-chloro-3-methanesulfonamido-1-[(2R)-1-(2,2,6,6-tetramethylmorpholin-4-yl)propan-2-yl]-1H-indazol-7-yl}-7-(4,4-difluorocyclohexyl)-5-methyl-4-oxo-3H,4H-pyrido[2,3-d]pyrimidin-2-yl]-2-(3,5-difluorophenyl)ethyl]-2-[(2R*,4R*)-9-cyclopropyl-7,8-diazatricyclo[4.3.0.0^2,^4]nona-1(6),8-dien-7-yl]acetamide]	0.038 nM	> 20 nM
COCCCn1nc(NS(C)(=O)=O)c2c(Cl)ccc(-n3c([C@H](Cc4cc(F)cc(F)c4)NC(=O)Cn4nc(C(F)F)c5c4C(F)(F)[C@@H]4C[C@H]54)nc4nc(C5CCC(F)(F)CC5)cc(NCCc5ccccc5)c4c3=O)c21 (atropisomer, axis not shown; (P)) [Example 521, N-[(1S)-1-[(3P)-3-[4-chloro-3-methanesulfonamido-1-(3-methoxypropyl)-1H-indazol-7-yl]-7-(4,4-difluorocyclohexyl)-4-oxo-5-[(2-phenylethyl)amino]-3H,4H-pyrido[2,3-d]pyrimidin-2-yl]-2-(3,5-difluorophenyl)ethyl]-2-[(2S,4R)-9-(difluoromethyl)-5,5-difluoro-7,8-diazatricyclo[4.3.0.0^2,^4]nona-1(6),8-dien-7-yl]acetamide]	0.079 nM	> 20 nM
COCCCn1nc(NS(C)(=O)=O)c2c(Cl)ccc(-n3c([C@H](Cc4cc(F)cc(F)c4)NC(=O)Cn4nc(C(F)F)c5c4C(F)(F)[C@@H]4C[C@H]54)nc4nc(C5(F)CCC(F)(F)CC5)cc(C)c4c3=O)c21 (atropisomer, axis not shown; (P)) [Example 553, N-[(1S)-1-[(3P)-3-[4-chloro-3-methanesulfonamido-1-(3-methoxypropyl)-1H-indazol-7-yl]-5-methyl-4-oxo-7-(1,4,4-trifluorocyclohexyl)-3H,4H-pyrido[2,3-d]pyrimidin-2-yl]-2-(3,5-difluorophenyl)ethyl]-2-[(2S,4R)-9-(difluoromethyl)-5,5-difluoro-7,8-diazatricyclo[4.3.0.0^2,^4]nona-1(6),8-dien-7-yl]acetamide]	0.024 nM	> 20 nM
Cc1cc(C2CCC(F)(F)CC2)nc2nc([C@H](Cc3cc(F)cc(F)c3)NC(=O)Cn3nc(C4CC4)c4c3C[C@@H]3C[C@H]43)n(-c3ccc(Cl)c4c(NS(C)(=O)=O)nn(CCN5C[C@H]6CC[C@@H](C5)O6)c34)c(=O)c12 (atropisomer, axis not shown; (P)) [Example 4, N-[(1S)-1-[(3P)-3-(4-chloro-3-methanesulfonamido-1-{2-[(1R,5S)-8-oxa-3-azabicyclo[3.2.1]octan-3-yl]ethyl}-1H-indazol-7-yl)-7-(4,4-difluorocyclohexyl)-5-methyl-4-oxo-3H,4H-pyrido[2,3-d]pyrimidin-2-yl]-2-(3,5-difluorophenyl)ethyl]-2-[(2S,4S)-9-cyclopropyl-7,8-diazatricyclo[4.3.0.0^2,^4]nona-1(6),8-dien-7-yl]acetamide]	0.007 nM	> 50 nM
Cc1cc(C2(F)CCC(F)(F)CC2)nc2nc([C@H](Cc3cc(F)cc(F)c3)NC(=O)Cn3nc(C(F)F)c4c3C(F)(F)[C@@H]3C[C@H]43)n(-c3ccc(Cl)c4c(NS(C)(=O)=O)nn(CCN5C[C@@H](C)OC(C)(C)C5)c34)c(=O)c12 (atropisomer, axis not shown; (P)) [Example 577, N-[(1S)-1-[(3P)-3-(4-chloro-3-methanesulfonamido-1-{2-[(6R)-2,2,6-trimethylmorpholin-4-yl]ethyl}-1H-indazol-7-yl)-5-methyl-4-oxo-7-(1,4,4-trifluorocyclohexyl)-3H,4H-pyrido[2,3-d]pyrimidin-2-yl]-2-(3,5-difluorophenyl)ethyl]-2-[(2S,4R)-9-(difluoromethyl)-5,5-difluoro-7,8-diazatricyclo[4.3.0.0^2,^4]nona-1(6),8-dien-7-yl]acetamide]	0.014 nM	> 20 nM
COCCCn1nc(NS(C)(=O)=O)c2c(Cl)ccc(-n3c([C@H](Cc4cc(F)cc(F)c4)NC(=O)Cn4nc(C(F)F)c5c4C(F)(F)[C@@H]4C[C@H]54)nc4nc(C5CCC(F)(F)CC5)cc(CN5CC(C(F)(F)F)C5)c4c3=O)c21 (atropisomer, axis not shown; (P)) [Example 605, N-[(1S)-1-[(3P)-3-[4-chloro-3-methanesulfonamido-1-(3-methoxypropyl)-1H-indazol-7-yl]-7-(4,4-difluorocyclohexyl)-4-oxo-5-{[3-(trifluoromethyl)azetidin-1-yl]methyl}-3H,4H-pyrido[2,3-d]pyrimidin-2-yl]-2-(3,5-difluorophenyl)ethyl]-2-[(2S,4R)-9-(difluoromethyl)-5,5-difluoro-7,8-diazatricyclo[4.3.0.0^2,^4]nona-1(6),8-dien-7-yl]acetamide]	0.018 nM	> 20 nM
